# Assay results: ChEMBL document CHEMBL1142262, “New QSAR combined strategy for the design of A1 adenosine receptor agonists” (Bioorg Med Chem, 2008)
# Biological target: T1, Adenosine receptor A1 (Rattus norvegicus, UniProt P25099)
# T1 sequence (P25099 whole entry): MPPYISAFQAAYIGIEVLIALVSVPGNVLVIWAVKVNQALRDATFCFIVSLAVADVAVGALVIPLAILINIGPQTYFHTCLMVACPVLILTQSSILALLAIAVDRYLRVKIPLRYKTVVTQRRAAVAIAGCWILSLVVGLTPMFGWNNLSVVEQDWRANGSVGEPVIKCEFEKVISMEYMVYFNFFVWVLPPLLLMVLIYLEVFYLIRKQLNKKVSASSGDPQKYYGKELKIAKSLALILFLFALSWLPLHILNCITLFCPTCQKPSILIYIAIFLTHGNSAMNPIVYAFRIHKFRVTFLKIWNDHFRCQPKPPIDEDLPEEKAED
# Experiment: Displacement of [3H]R-N6-phenylisopropyladenosine from adenosine A1 receptor in rat cerebral cortical membrane
# Format: cell membranes
# Conditions: read-out: -Log Ki (converted)
row,Structure (SMILES),Ki
1,OCC1CC=CC1n1cnc2c(NC3CCCC3)ncnc21 (racemic),333 µM

# Same assay, conditions: read-out: Ki
row,Structure (SMILES),Ki
1,OCC1CC=CC1n1cnc2c(NC3CC3)ncnc21 (racemic),32.3 µM
2,OCC1CC=CC1n1cnc2c(NCc3ccccc3I)ncnc21 (racemic),25.5 µM
3,OCC1CC=CC1n1cnc2c(NC3CCCC3)ncnc21 (racemic),3 µM

# Biological target: T2, Adenosine receptor A1 (Rattus norvegicus) (UniProt P25099)
# T2 sequence (whole entry): T1 sequence (P25099 whole entry)
# Experiment: Displacement of [3H]R-N6-phenylisopropyladenosine from adenosine A1 receptor in rat cerebral cortical membrane at 100 uM
# Format: cell membranes
# Conditions: not given
row,Structure (SMILES),inhibition
1,CNC(=O)C1CC=CC1n1cnc2c(N)ncnc21 (racemic),22%
2,CNC(=O)C1CC=CC1n1cnc2c(NCc3ccccc3)ncnc21 (racemic),< 10%
3,NNc1ncnc2c1ncn2C1C=CCC1CO (racemic),29%
4,CNC(=O)C1CCCC1n1cnc2c(NCc3ccccc3I)ncnc21 (racemic),< 10%

# Further lines, results first:
row,inhibition,Structure (SMILES)
1,26%,CNC(=O)C1CCCC1n1cnc2c(NCc3ccccc3)ncnc21 (racemic)
2,25%,CNC(=O)C1CCCC1n1cnc2c(N)ncnc21 (racemic)
3,50%,CNC(=O)C1CC=CC1n1cnc2c(NC3CC3)ncnc21 (racemic)
4,31%,CNC(=O)C1CCCC1n1cnc2c(NC3CCCC3)ncnc21 (racemic)
5,< 10%,CNC(=O)C1CCCC1n1cnc2c(NC3CC3)ncnc21 (racemic)
6,< 10%,CNC(=O)C1CC=CC1n1cnc2c(NC3CCCC3)ncnc21 (racemic)
